Results as given in US7070965B1, “Small molecule anticancer compounds and related production process” (priority 1998, dated 2006).
≈ marks a conversion by molar mass, not a printed value.

What was measured:
[1] = tested on: human prostate carcinoma DU145; assay: Orthotopic nude mice model of human prostate carcinoma DU145; format: in vivo; conditions: for Mean tumor weight / TIR (tumor inhibition rate): oral once a day
Procedure: 13-methyltetradecanoic acid (iso-C15) was chemically synthesized in the inventor's laboratory, as described in Example 5, infra, (purity of 99.8%) was prepared by dissolving in NaOH solution and then in 0.35% Tween 80 with pH7.5.
Total of 24 male athymic BALB/c nude mice between 4 and 5 weeks of age were bred and maintained in specific pathogen free condition.
Human prostate carcinoma DU145 tumor was implanted and maintained subcutaneously in the flank of athymic nude mice. Prior to orthotopic implantation, the tumor was harvested in log phase. The peripheral tumor tissue was collected and minced to small pieces of one cubic millimeter each.
The mice were anesthetized for surgical orthotopic implantation. A small incision was made along the midline of the lower abdomen. After proper exposure of the bladder and prostate, the capsule of the prostate was opened and three pieces of DU145 tumor fragments were inserted into the capsule. The capsule was then closed using 8-0 suture, and the abdomen was closed using a 6-0 surgical suture.
The mice bearing orthotopic DU145 were randomly divided into control and test groups of eight mice each at the second day after tumor implantation. The iso-C15 prepared above at doses 35 and 70 mg/kg and PBS were administered by gavage once a day in low dose and high dose test groups and control group, respectively, for […].
All the mice were sacrificed by CO2 inhalation at day-40 after the start of treatment. The weights of primary tumors and bodies were measured. Tissue samples of the primary tumors were processed through standard procedures of hematoxylin and eosin staining for microscopic examination.
The tumor inhibition rates (TIR) were determined by comparing the mean tumor weight of the test groups (T) with that of the control group (C) and expressed as a (C)−T)/C percentage, and were analyzed by Student's test for statistical significance.

K562 leukemia cells = assay: Apoptosis morphology, transmission electron microscope; format: cell-based, human; conditions: 60 μg/ml, 4 hours
Procedure: Human cancer cell lines DU-145 (prostate cancer), K562 (leukemia), HCT116 (colon cancer), H1688 (lung cancer), SUN423 (hepatocarcinoma), MCF7 (breast cancer), CRL-1687 (pancreatic cancer), and SUN-1 (gastric cancer) were obtained from American Type Culture Collection (ATCC). 30 ml blood was collected from a health person and normal peripheral mononuclear cells were separated by Ficoll separation solution (Sigma). All cells were maintained in RPMI 1640, DMEM, or McCoy medium supplemented with 10% FCS, […] streptomycin and 100 u/ml penicillin. Normal human peripheral mononuclear cells, K562 and SUN-1 were suspended cells. After spinning at 1,500 RPM for 5 min, supernatants were discharged and cells were resuspended and expended in fresh medium. The other tumor cell lines were adherent cells and were dispersed with 0.05% trypsin/0.01% EDTA (Irvine Scientific, CA) for expansion. Cells were seeded in T75 flasks at 2×10^6 cells/flask in culture medium supplemented with 10% fetal bovine serum and incubated overnight at 37° C. with 5% CO2. The adherent cells attached to the plate were striped with disposable cell scrapers (Fisher Scientific) after treated either with 1% iso-C15, anteiso-C15 or control solution for 1, 2, 4, 8 and 24 hours and then combined with respective float cells. […]

[2] = tested on: SNU-1 human gastric carcinoma; assay: Cytotoxicity ID50/ID75/ID90, viability assessment; format: cell-based; conditions: 48 hours
Procedure: (§1) PBLs, K-562 and SNU-1 cells in suspension culture were seeded in 96-well microplates at a density of 5×10^4 cells/well for K-562 and SNU-1, and 1×10^5 cells/well for PBLs. iso-C15 were diluted with medium to provide different concentrations (0, 1.5, 3.0, 6.0, 15.0, 30.0, and 60.0 μg/ml). Both untreated and solvent (NaOH and Tween 80) treated cells served as controls. After incubation for 48 hours at 37° C., cells were collected directly from the wells for viability assessment.
(§2) The ID50, ID75 and ID90 were determined in duplicate in every set of experiments, and each experiment was repeated three times under identical conditions. ID50, ID75 and ID90 were defined as the concentration of iso-C15 required to kill 50, 75 or 90%, respectively, of cells (compared with that in untreated cells) and computed using CalcuSyn for Windows software (Biosoft, Cambridge UK) based on Median Effect method by Dr. T. C. Chou.

K-562 human leukemia = assay: Cytotoxicity ID50/ID75/ID90, viability assessment; format: cell-based; conditions: 48 hours
Procedure: as §1, §2

[3] = tested on: MCF-7 human breast adenocarcinoma; assay: Cytotoxicity ID50/ID75/ID90, trypan blue dye exclusion; format: cell-based; conditions: 48 hours
Procedure: (§3) All cells in adherent culture were initiated at 5×10^4 cells/well in 96-well microplates and treated immediately with iso-C15 at different concentrations (0, 1.5, 3.0, 6.0, 15.0, 30.0, and 60.0 μg/ml) diluted with medium. Both untreated and solvent (NaOH and Tween 80) treated cells served as controls. The treated cells were incubated for 48 hours at 37° C. After incubation, the supernatants were removed and the cells were trypsinized and collected prior to viability assessment by trypan blue dye exclusion.
as §2

[4] = tested on: H1688 human small cell lung carcinoma; assay: as above; format: cell-based; conditions: 48 hours
Procedure: as §3, §2

[5] = tested on: SNU-423 human hepatocellular carcinoma; assay: as above; format: cell-based; conditions: 48 hours
Procedure: as §3, §2

[6] = tested on: DU-145 human prostate carcinoma; assay: as above; format: cell-based; conditions: 48 hours
Procedure: as §3, §2

[7] = tested on: HCT 116 human colon carcinoma; assay: as above; format: cell-based; conditions: 48 hours
Procedure: as §3, §2

`CC(C)CCCCCCCCCCCC(=O)O` [iso-C15, 13-methyltetradecanoic acid] was tested, and the Mean tumor weight ([1]; 35 mg/kg) was 493.25 mg, the “TIR (tumor inhibition rate)” value ([1]; 35 mg/kg) was 54.8% and the Mean tumor weight ([1]; 70 mg/kg) was 168.00 mg. The “TIR (tumor inhibition rate)” value ([1]; 70 mg/kg) was 84.6%, the “signs of toxicity (body weight curve, histology slides)” value ([1]; 35 and 70 mg/kg oral) was “no signs of toxicity” and the “mice in which the implanted tumor did not grow” value ([1]; high dose, 70 mg/kg, eight mice per group) was “four”. For the same compound, the “morphological changes indicative of apoptosis” value (K562 leukemia cells) was “exhibits typical apoptotic feature”, the ID75 [2] was 47.43 ± 4.95 µg/mL (≈ 196 µM) and the ID90 [2] was 80.49 ± 10.03 µg/mL (≈ 332 µM). For the same compound, the ID75 (K-562 human leukemia) was 22.27 ± 4.60 µg/mL (≈ 91.9 µM), the ID90 (K-562 human leukemia) was 43.57 ± 6.71 µg/mL (≈ 180 µM) and the ID75 [3] was 15.99 ± 1.28 µg/mL (≈ 66 µM). It also gave an ID90 [3] of 25.49 ± 1.68 µg/mL (≈ 105 µM), an ID75 [4] of 35.03 ± 3.59 µg/mL (≈ 145 µM) and an ID90 [4] of 61.37 ± 8.06 µg/mL (≈ 253 µM). It also gave an ID75 [5] of 70.46 ± 9.36 µg/mL (≈ 291 µM), an ID90 [5] of 120.77 ± 15.82 µg/mL (≈ 498 µM) and an ID75 [6] of 40.43 ± 5.72 µg/mL (≈ 167 µM). The ID90 [6] was 81.87 ± 8.85 µg/mL (≈ 338 µM), the ID75 [7] was 67.96 ± 8.25 µg/mL (≈ 280 µM) and the ID90 [7] was 108.65 ± 13.35 µg/mL (≈ 448 µM).
